Measured values reported in the supplement of paper PMC10307832.

Key:
Assay in all cases: relative viability (nuclei count vs DMSO), 5 days (fraction); higher = more cells survive
ChaGo-K-1 = test system: ChaGo-K-1
Method in brief: (§1)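 Relative viability divides the nuclei count in treated wells by that in vehicle wells. Lung cancer cell lines were seeded in 1536-well plates, dosed by pin tool the next day, and fixed and stained after 5 days in one step with final 0.05% Triton X-100, 1% formaldehyde and 1 ug/ml Hoechst. Dosing was a single drug or a fixed anchor-drug dose plus five library-drug doses (not always all listed) in √10 steps, and values are medians of duplicate plates imaged at 4×.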

EKVX = test system: EKVX
Method in brief: as §1

EMC-BAC-2 = test system: EMC-BAC-2
Method in brief: as §1

EPLC-272H = test system: EPLC-272H
Method in brief: as §1

H3255 = test system: H3255
Method in brief: as §1

HCC-15 = test system: HCC-15
Method in brief: as §1

HCC-827 = test system: HCC-827
Method in brief: as §1

LC-2-ad = test system: LC-2-ad
Method in brief: as §1

LCLC-97TM1 = test system: LCLC-97TM1
Method in brief: as §1

NCI-H1793 = test system: NCI-H1793
Method in brief: as §1

NCI-H1915 = test system: NCI-H1915
Method in brief: as §1

NCI-H1944 = test system: NCI-H1944
Method in brief: as §1

NCI-H1993 = test system: NCI-H1993
Method in brief: as §1

NCI-H23 = test system: NCI-H23
Method in brief: as §1

NCI-H322M = test system: NCI-H322M
Method in brief: as §1

NCI-H460 = test system: NCI-H460
Method in brief: as §1

NCI-H522 = test system: NCI-H522
Method in brief: as §1

NCI-H661 = test system: NCI-H661
Method in brief: as §1

PC-14 = test system: PC-14
Method in brief: as §1

SK-LU-1 = test system: SK-LU-1
Method in brief: as §1

SW 900 = test system: SW 900
Method in brief: as §1

With `COCC1(CO)C(=O)C2CCN1CC2` (configuration not stated) [PRIMA-1MET] + Cc1cc(Nc2cc(N3CCN(C)CC3)nc(Sc3ccc(NC(=O)C4CC4)cc3)n2)n[nH]1 [Tozasertib] (partner 0.1 µM) the relative viability (ChaGo-K-1; first compound 0.2 µM) was 0.209, the relative viability (ChaGo-K-1; first compound 0.6325 µM) was 0.2 and the relative viability (ChaGo-K-1; first compound 2 µM) was 0.213. It also gave a relative viability (ChaGo-K-1; first compound 6.325 µM) of 0.224, a relative viability (ChaGo-K-1; first compound 20 µM) of 0.207 and a relative viability (EKVX; first compound 0.2 µM) of 0.452. For the same compound, the relative viability (EKVX; first compound 0.6325 µM) was 0.357, the relative viability (EKVX; first compound 6.325 µM) was 0.397 and the relative viability (EKVX; first compound 20 µM) was 0.366. The relative viability (EMC-BAC-2; first compound 0.2 µM) was 0.335, the relative viability (EMC-BAC-2; first compound 0.6325 µM) was 0.332 and the relative viability (EMC-BAC-2; first compound 6.325 µM) was 0.277. It also gave a relative viability (EMC-BAC-2; first compound 20 µM) of 0.191, a relative viability (EPLC-272H; first compound 2 µM) of 0.186 and a relative viability (EPLC-272H; first compound 6.325 µM) of 0.196. It also gave a relative viability (EPLC-272H; first compound 20 µM) of 0.105, a relative viability (H3255; first compound 0.2 µM) of 0.807 and a relative viability (H3255; first compound 0.6325 µM) of 0.765. For the same compound, the relative viability (H3255; first compound 2 µM) was 0.461, the relative viability (H3255; first compound 6.325 µM) was 0.615 and the relative viability (H3255; first compound 20 µM) was 0.505. It also gave a relative viability (HCC-15; first compound 0.2 µM) of 0.431, a relative viability (HCC-15; first compound 0.6325 µM) of 0.363 and a relative viability (HCC-15; first compound 2 µM) of 0.356. It also gave a relative viability (HCC-15; first compound 6.325 µM) of 0.422, a relative viability (HCC-15; first compound 20 µM) of 0.151 and a relative viability (HCC-827; first compound 0.2 µM) of 0.424. For the same compound, the relative viability (HCC-827; first compound 0.6325 µM) was 0.387, the relative viability (HCC-827; first compound 2 µM) was 0.376 and the relative viability (HCC-827; first compound 6.325 µM) was 0.399. For the same compound, the relative viability (HCC-827; first compound 20 µM) was 0.379, the relative viability (LC-2-ad; first compound 0.2 µM) was 0.422 and the relative viability (LC-2-ad; first compound 2 µM) was 0.399. For the same compound, the relative viability (LC-2-ad; first compound 6.325 µM) was 0.429, the relative viability (LC-2-ad; first compound 20 µM) was 0.394 and the relative viability (LCLC-97TM1; first compound 0.2 µM) was 0.237. The relative viability (LCLC-97TM1; first compound 0.6325 µM) was 0.239, the relative viability (LCLC-97TM1; first compound 2 µM) was 0.325 and the relative viability (LCLC-97TM1; first compound 6.325 µM) was 0.204. The relative viability (LCLC-97TM1; first compound 20 µM) was 0.123, the relative viability (NCI-H1793; first compound 0.2 µM) was 0.44 and the relative viability (NCI-H1793; first compound 0.6325 µM) was 0.316. The relative viability (NCI-H1793; first compound 6.325 µM) was 0.414, the relative viability (NCI-H1793; first compound 20 µM) was 0.237 and the relative viability (NCI-H1915; first compound 0.2 µM) was 0.444. The relative viability (NCI-H1915; first compound 0.6325 µM) was 0.368, the relative viability (NCI-H1915; first compound 6.325 µM) was 0.389 and the relative viability (NCI-H1915; first compound 20 µM) was 0.364. For the same compound, the relative viability (NCI-H1944; first compound 0.2 µM) was 0.225, the relative viability (NCI-H1944; first compound 0.6325 µM) was 0.242 and the relative viability (NCI-H1944; first compound 2 µM) was 0.222. For the same compound, the relative viability (NCI-H1944; first compound 6.325 µM) was 0.243, the relative viability (NCI-H1944; first compound 20 µM) was 0.23 and the relative viability (NCI-H1993; first compound 0.2 µM) was 0.674. The relative viability (NCI-H1993; first compound 0.6325 µM) was 0.541, the relative viability (NCI-H1993; first compound 2 µM) was 0.566 and the relative viability (NCI-H1993; first compound 6.325 µM) was 0.569. The relative viability (NCI-H1993; first compound 20 µM) was 0.662, the relative viability (NCI-H23; first compound 0.2 µM) was 0.507 and the relative viability (NCI-H23; first compound 0.6325 µM) was 0.312. The relative viability (NCI-H23; first compound 2 µM) was 0.371, the relative viability (NCI-H23; first compound 6.325 µM) was 0.292 and the relative viability (NCI-H23; first compound 20 µM) was 0.097. It also gave a relative viability (NCI-H322M; first compound 0.2 µM) of 0.515, a relative viability (NCI-H322M; first compound 0.6325 µM) of 0.523 and a relative viability (NCI-H322M; first compound 6.325 µM) of 0.504. It also gave a relative viability (NCI-H322M; first compound 20 µM) of 0.286, a relative viability (NCI-H460; first compound 0.2 µM) of 0.443 and a relative viability (NCI-H460; first compound 0.6325 µM) of 0.312. For the same compound, the relative viability (NCI-H460; first compound 2 µM) was 0.311, the relative viability (NCI-H460; first compound 6.325 µM) was 0.5 and the relative viability (NCI-H460; first compound 20 µM) was 0.0183. It also gave a relative viability (NCI-H522; first compound 0.2 µM) of 0.602, a relative viability (NCI-H522; first compound 0.6325 µM) of 0.455 and a relative viability (NCI-H522; first compound 2 µM) of 0.46. It also gave a relative viability (NCI-H522; first compound 6.325 µM) of 0.507, a relative viability (NCI-H522; first compound 20 µM) of 0.0873 and a relative viability (NCI-H661; first compound 0.2 µM) of 0.369. For the same compound, the relative viability (NCI-H661; first compound 0.6325 µM) was 0.354, the relative viability (NCI-H661; first compound 2 µM) was 0.357 and the relative viability (NCI-H661; first compound 6.325 µM) was 0.343. It also gave a relative viability (NCI-H661; first compound 20 µM) of 0.353, a relative viability (PC-14; first compound 0.2 µM) of 0.629 and a relative viability (PC-14; first compound 0.6325 µM) of 0.55. It also gave a relative viability (PC-14; first compound 2 µM) of 0.519, a relative viability (PC-14; first compound 6.325 µM) of 0.714 and a relative viability (PC-14; first compound 20 µM) of 0.386. It also gave a relative viability (SK-LU-1; first compound 0.2 µM) of 0.4, a relative viability (SK-LU-1; first compound 0.6325 µM) of 0.371 and a relative viability (SK-LU-1; first compound 2 µM) of 0.319. For the same compound, the relative viability (SK-LU-1; first compound 6.325 µM) was 0.344, the relative viability (SK-LU-1; first compound 20 µM) was 0.24 and the relative viability (SW 900; first compound 0.2 µM) was 0.784. It also gave a relative viability (SW 900; first compound 0.6325 µM) of 0.465, a relative viability (SW 900; first compound 2 µM) of 0.524 and a relative viability (SW 900; first compound 6.325 µM) of 0.388. For the same compound, the relative viability (SW 900; first compound 20 µM) was 0.084.
